PubChem BioAssay (NCI)
“And” between values parts separate entries of the source, which are not always exact repeats. Equal entries are not always repeated.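 Five compound concentrations were applied to cells in 96-well plates for 48 hours; endpoints were derived by simple linear interpolation of the resulting dose-response curve. GI50 = concentration required for 50% inhibition of growth. The concentration for full growth arrest is given as TGI.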

What was measured:
Test in all cases: NCI anticancer screen, dose series, 48 h
[1] = test system: LOX IMVI melanoma
[2] = test system: SF-539 CNS
[3] = test system: MCF7 breast
[4] = test system: EKVX NSCLC
[5] = test system: CAKI-1 renal
[6] = test system: MDA-MB-231 breast
[7] = test system: SN12C renal
[8] = test system: M14 melanoma
[9] = test system: SK-MEL-5 melanoma
[10] = test system: NCI-H522 lung

c1ccc(-c2cn(-c3ccccc3)c(-c3ccccc3)n2)cc1
GI50 [1]: 1.95 µM | TGI [1]: 4.29 µM | GI50 [2]: 14.2 µM | TGI [2]: 27.9 µM | GI50 [3]: 1.59 µM | TGI [3]: 5.76 µM | GI50 [4]: 15.1 µM | TGI [4]: 28.9 µM | GI50 [5]: 17.4 µM | TGI [5]: 31.6 µM | GI50 [6]: 18.4 µM | TGI [6]: 36.5 µM | GI50 [7]: 15.4 µM | TGI [7]: 30.6 µM | GI50 [8]: 11 µM | TGI [8]: 23.8 µM | GI50 [9]: 14.9 µM | TGI [9]: 28.3 µM | GI50 [10]: 13.3 µM | TGI [10]: 27.2 µM

COc1cc2c3c(n(CCCN4CCCNCC4)c(=O)c2cc1OC)-c1cc2c(cc1C3=O)OCO2
GI50 [1]: 0.165 µM | TGI [1]: 0.886 µM | GI50 [2]: 0.29 µM | TGI [2]: 1.37 µM | GI50 [3]: 0.138 µM | TGI [3]: 6.29 µM | GI50 [4]: 7.6 µM | TGI [4]: 15.5 µM | GI50 [5]: 0.12 µM | TGI [5]: 1.65 µM | GI50 [6]: 1.06 µM | TGI [6]: 3.5 µM | GI50 [7]: 0.239 µM | TGI [7]: 1.28 µM | GI50 [8]: 0.521 µM | TGI [8]: 7.12 µM | GI50 [9]: 1.34 µM | TGI [9]: 8.21 µM | GI50 [10]: 1.87 µM | TGI [10]: 24.8 µM

O=[N+]([O-])/C=C/c1cc2ccc3ccccc3c2[nH]1
TGI [1]: 2.42 µM | TGI [2]: 4.99 µM | TGI [3]: 4.29 µM | TGI [4]: 5.33 µM | TGI [5]: 6.15 µM | TGI [6]: 3.2 µM | TGI [7]: 3.81 µM | TGI [8]: 3.33 µM | TGI [9]: 3.26 µM | TGI [10]: 2.4 µM

Cn1c(NCC(CN2CCCC2)OC(=O)c2ccccc2)cc(=O)n(C)c1=O (centres undefined)
GI50 [1]: > 100 µM | TGI [1]: > 100 µM | GI50 [2]: > 100 µM | TGI [2]: > 100 µM | GI50 [3]: > 100 µM | TGI [3]: > 100 µM | GI50 [4]: > 100 µM | TGI [4]: > 100 µM | GI50 [5]: > 100 µM | TGI [5]: > 100 µM | GI50 [6]: > 100 µM | TGI [6]: > 100 µM | GI50 [7]: > 100 µM | TGI [7]: > 100 µM | GI50 [9]: > 100 µM | TGI [9]: > 100 µM | GI50 [10]: > 100 µM | TGI [10]: > 100 µM

NC(=O)CCc1ccccc1Oc1nccc(-c2c(-c3ccc(F)cc3)ncn2C2CCNCC2)n1
GI50 [1]: > 25 µM | TGI [1]: > 25 µM | GI50 [2]: > 25 µM | TGI [2]: > 25 µM | GI50 [3]: > 25 µM | TGI [3]: > 25 µM | GI50 [4]: > 25 µM | TGI [4]: > 25 µM | GI50 [5]: > 25 µM | TGI [5]: > 25 µM | GI50 [6]: > 25 µM | TGI [6]: > 25 µM | GI50 [7]: > 25 µM | TGI [7]: > 25 µM | GI50 [8]: > 25 µM | TGI [8]: > 25 µM | GI50 [9]: > 25 µM | TGI [9]: > 25 µM | GI50 [10]: > 25 µM | TGI [10]: > 25 µM

COc1cc(/C=C/C(=O)c2c(C)nc3ccccc3c2C)ccc1OCCCCOc1cc2c(cc1OC)C(=O)N1CCC[C@H]1C=N2
GI50 [2]: 0.55 µM | TGI [2]: 1.54 µM | GI50 [3]: 0.238 µM | TGI [3]: 0.975 µM | GI50 [4]: 1.74 µM | TGI [4]: 3.56 µM | GI50 [5]: 0.331 µM | TGI [5]: 1.44 µM | GI50 [6]: 0.606 µM | TGI [6]: 3.51 µM | GI50 [7]: 0.509 µM | TGI [7]: 9.87 µM | GI50 [8]: 1.16 µM | TGI [8]: > 100 µM | GI50 [9]: 0.517 µM | TGI [9]: 1.47 µM | GI50 [10]: 0.339 µM | TGI [10]: 1.26 µM

NS(=O)(=O)c1ccc(N=C2C(=O)Nc3ccccc32)cc1
TGI [1]: > 100 µM | TGI [3]: > 100 µM | TGI [4]: > 100 µM | TGI [5]: > 100 µM | TGI [6]: > 100 µM | TGI [7]: > 100 µM | TGI [8]: > 100 µM | TGI [9]: > 100 µM | TGI [10]: > 100 µM

C=C1C(=O)OC2CC1C(OC(C)=O)C/C(C)=C/CC/C(C)=C\CCC2(C)O (centres undefined)
TGI [2]: 18.4 µM and 12.7 µM | TGI [3]: 16.2 µM and 26.3 µM | TGI [4]: 16 µM and 14 µM | TGI [5]: 14.2 µM and 9.91 µM | TGI [6]: 22.5 µM and 22.2 µM | TGI [7]: 11.3 µM and 16.6 µM | TGI [8]: > 36.9 µM and 29.6 µM | GI50 [9]: 6.82 µM and 2.88 µM | TGI [9]: 24 µM and 10.8 µM | TGI [10]: 3.16 µM and 3.13 µM

CS(=N)(=O)CCC(N)P(=O)(O)O (centres undefined)
TGI [1]: > 100 µM | TGI [2]: > 100 µM | TGI [3]: > 100 µM | TGI [4]: > 100 µM | TGI [5]: > 100 µM | TGI [6]: > 100 µM | TGI [7]: > 100 µM | TGI [8]: > 100 µM | TGI [9]: > 100 µM | TGI [10]: > 100 µM

O=C(Cc1ccc(Nc2ccnc(C(F)(F)F)c2)cc1)N/N=C/c1ccccc1O
GI50 [1]: 1.34 µM | TGI [1]: 15.9 µM | GI50 [2]: 2.44 µM | TGI [2]: 12.2 µM | GI50 [3]: 2.94 µM | TGI [3]: 23.7 µM | GI50 [4]: 3.05 µM | TGI [4]: > 60.9 µM | GI50 [5]: 1.35 µM | TGI [5]: 13 µM | GI50 [6]: 2.55 µM | TGI [6]: > 74.9 µM | GI50 [7]: 2.9 µM | TGI [7]: > 58.6 µM | GI50 [8]: 1.82 µM | TGI [8]: 19.5 µM | GI50 [9]: 2.58 µM | TGI [9]: 11.1 µM | GI50 [10]: 8.96 µM | TGI [10]: 35.9 µM

O=C(O)CNCCc1ccccc1
TGI [1]: > 100 µM | TGI [3]: > 100 µM | TGI [4]: > 100 µM | TGI [5]: > 100 µM | TGI [6]: > 100 µM | TGI [7]: > 100 µM | TGI [8]: > 100 µM | TGI [9]: > 100 µM | TGI [10]: > 100 µM

CCCOc1ccc(/C=N/Nc2cc(C)nc3ccc(Cl)cc23)cc1
GI50 [1]: 1.7 µM | TGI [1]: 3.1 µM | GI50 [2]: 1.79 µM | TGI [2]: 3.2 µM | GI50 [3]: 1.67 µM | TGI [3]: 3.4 µM | GI50 [4]: 1.64 µM | TGI [4]: 3.05 µM | GI50 [5]: 1.78 µM | TGI [5]: 3.2 µM | GI50 [6]: 1.85 µM | TGI [6]: 3.49 µM | GI50 [7]: 1.82 µM | TGI [7]: 3.31 µM | GI50 [8]: 1.69 µM | TGI [8]: 3.23 µM | GI50 [9]: 1.54 µM | TGI [9]: 2.88 µM | GI50 [10]: 1.75 µM | TGI [10]: 3.42 µM

O=C(/C=C/c1nnc2n(Cc3ccccc3)c(=O)c3c4c(sc3n12)CCCC4)c1ccccc1
GI50 [1]: 3.48 µM | GI50 [2]: > 100 µM | TGI [2]: > 100 µM | TGI [3]: > 100 µM | GI50 [4]: > 100 µM | TGI [4]: > 100 µM | TGI [5]: > 100 µM | GI50 [6]: 0.219 µM | TGI [6]: 0.55 µM | TGI [8]: > 100 µM | GI50 [9]: > 100 µM | TGI [9]: > 100 µM | GI50 [10]: 1.09 µM | TGI [10]: > 100 µM

CCOC(=O)[C@@H](C)C[C@H](Cc1ccccc1)NC(=O)c1csc([C@@H](C[C@H](C(C)C)N(C)C(=O)[C@@H](NC(=O)[C@H]2C[C@H](O)CCN2C)C(C)C)OC(C)=O)n1
GI50 [1]: 0.00422 µM | TGI [1]: > 16.7 µM | GI50 [2]: 0.00452 µM | TGI [2]: 0.0157 µM | GI50 [3]: < 0.00167 µM | TGI [3]: > 16.7 µM | GI50 [4]: 0.05 µM | TGI [4]: > 16.7 µM | GI50 [5]: 0.0682 µM | TGI [5]: > 16.7 µM | GI50 [6]: 0.00565 µM | TGI [6]: 3.24 µM | GI50 [7]: 0.00936 µM | TGI [7]: > 16.7 µM | GI50 [9]: 0.00175 µM | TGI [9]: 0.13 µM | GI50 [10]: < 0.00167 µM | TGI [10]: 0.0367 µM

FC(F)(F)c1cc(-c2ncn(/C=C\c3nnco3)n2)cc(C(F)(F)F)c1
GI50 [1]: 0.0902 µM | TGI [1]: 3.82 µM | GI50 [2]: 0.0197 µM | TGI [2]: 0.0744 µM | GI50 [3]: 0.0414 µM | TGI [3]: 2.94 µM | GI50 [5]: 0.0497 µM | TGI [5]: > 38.9 µM | GI50 [6]: 0.132 µM | TGI [6]: > 73.9 µM | GI50 [7]: 0.417 µM | TGI [7]: > 100 µM | GI50 [8]: 0.372 µM | TGI [8]: > 34.6 µM | GI50 [9]: 0.165 µM | TGI [9]: 2.74 µM | GI50 [10]: 0.0381 µM | TGI [10]: 0.445 µM
